From the supplement of paper PMC10307832

How the values were obtained:
Experiment in all cases: relative viability (nuclei count vs DMSO), 5 days (fraction); higher = more cells survive
COR-L23 = test system: COR-L23
In short: (§1)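 Lung cancer cell lines in 1536-well plates got either a single drug or a fixed anchor-drug dose together with five library-drug doses (not always all listed) in √10 steps, by pin tool, on the day after seeding. Nuclei were counted after 5 days, and relative viability is the treated-to-vehicle ratio of nuclei counts. Values are medians of duplicate plates.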

NCI-H23 = test system: NCI-H23
In short: as §1

NCI-H647 = test system: NCI-H647
In short: as §1

LC-2-ad = test system: LC-2-ad
In short: as §1

NCI-H1993 = test system: NCI-H1993
In short: as §1

HOP-62 = test system: HOP-62
In short: as §1

ABC-1 = test system: ABC-1
In short: as §1

NCI-H520 = test system: NCI-H520
In short: as §1

NCI-H2347 = test system: NCI-H2347
In short: as §1

HCC-44 = test system: HCC-44
In short: as §1

NCI-H838 = test system: NCI-H838
In short: as §1

NCI-H2085 = test system: NCI-H2085
In short: as §1

NCI-H1355 = test system: NCI-H1355
In short: as §1

NCI-H661 = test system: NCI-H661
In short: as §1

NCI-H1395 = test system: NCI-H1395
In short: as §1

CAL-12T = test system: CAL-12T
In short: as §1

201T = test system: 201T
In short: as §1

NCI-H1666 = test system: NCI-H1666
In short: as §1

NCI-H322M = test system: NCI-H322M
In short: as §1

NCI-H2170 = test system: NCI-H2170
In short: as §1

NCI-H2228 = test system: NCI-H2228
In short: as §1

LCLC-103H = test system: LCLC-103H
In short: as §1

NCI-H1651 = test system: NCI-H1651
In short: as §1

`CCCCCCCCCCCC1=C(O)C(=O)C=C(O)C1=O` [Embelin] + Cc1nc(NC(=O)N2CCC[C@H]2C(N)=O)sc1-c1ccnc(C(C)(C)C(F)(F)F)c1 [Alpelisib] (partner 2 µM) gave a relative viability (COR-L23; first compound 0.08 µM) of 0.872, a relative viability (COR-L23; first compound 0.8 µM) of 1.11 and a relative viability (COR-L23; first compound 2.53 µM) of 0.874. The relative viability (COR-L23; first compound 8 µM) was 0.777, the relative viability (NCI-H23; first compound 0.08 µM) was 0.606 and the relative viability (NCI-H23; first compound 0.8 µM) was 0.901. For the same compound, the relative viability (NCI-H23; first compound 2.53 µM) was 0.844, the relative viability (NCI-H23; first compound 8 µM) was 0.74 and the relative viability (NCI-H647; first compound 0.08 µM) was 1.29. It also gave a relative viability (NCI-H647; first compound 0.8 µM) of 1.15, a relative viability (NCI-H647; first compound 2.53 µM) of 1.45 and a relative viability (NCI-H647; first compound 8 µM) of 1.28. It also gave a relative viability (LC-2-ad; first compound 0.08 µM) of 0.891, a relative viability (LC-2-ad; first compound 0.8 µM) of 0.913 and a relative viability (LC-2-ad; first compound 2.53 µM) of 0.716. For the same compound, the relative viability (LC-2-ad; first compound 8 µM) was 0.892, the relative viability (NCI-H1993; first compound 0.08 µM) was 0.753 and the relative viability (NCI-H1993; first compound 0.8 µM) was 0.755. It also gave a relative viability (NCI-H1993; first compound 2.53 µM) of 0.649, a relative viability (NCI-H1993; first compound 8 µM) of 0.658 and a relative viability (HOP-62; first compound 0.08 µM) of 1.04. The relative viability (HOP-62; first compound 0.8 µM) was 0.918, the relative viability (HOP-62; first compound 2.53 µM) was 1.41 and the relative viability (HOP-62; first compound 8 µM) was 0.796. It also gave a relative viability (ABC-1; first compound 0.08 µM) of 1.24, a relative viability (ABC-1; first compound 0.8 µM) of 1.1 and a relative viability (ABC-1; first compound 2.53 µM) of 0.996. For the same compound, the relative viability (ABC-1; first compound 8 µM) was 1.18, the relative viability (NCI-H520; first compound 0.08 µM) was 1.05 and the relative viability (NCI-H520; first compound 0.8 µM) was 1.06. The relative viability (NCI-H520; first compound 2.53 µM) was 0.896, the relative viability (NCI-H520; first compound 8 µM) was 0.901 and the relative viability (NCI-H2347; first compound 0.08 µM) was 1.05. The relative viability (NCI-H2347; first compound 0.8 µM) was 1.16, the relative viability (NCI-H2347; first compound 2.53 µM) was 1.11 and the relative viability (NCI-H2347; first compound 8 µM) was 1.16. For the same compound, the relative viability (HCC-44; first compound 0.08 µM) was 0.781, the relative viability (HCC-44; first compound 0.8 µM) was 0.767 and the relative viability (HCC-44; first compound 2.53 µM) was 0.895. For the same compound, the relative viability (HCC-44; first compound 8 µM) was 1, the relative viability (NCI-H838; first compound 0.08 µM) was 1.01 and the relative viability (NCI-H838; first compound 0.8 µM) was 1. The relative viability (NCI-H838; first compound 2.53 µM) was 1.12, the relative viability (NCI-H838; first compound 8 µM) was 1.11 and the relative viability (NCI-H2085; first compound 0.08 µM) was 0.944. For the same compound, the relative viability (NCI-H2085; first compound 0.8 µM) was 0.999, the relative viability (NCI-H2085; first compound 2.53 µM) was 1.11 and the relative viability (NCI-H2085; first compound 8 µM) was 0.999. For the same compound, the relative viability (NCI-H1355; first compound 0.08 µM) was 0.847, the relative viability (NCI-H1355; first compound 0.8 µM) was 0.897 and the relative viability (NCI-H1355; first compound 2.53 µM) was 0.916. It also gave a relative viability (NCI-H1355; first compound 8 µM) of 0.771, a relative viability (NCI-H661; first compound 0.08 µM) of 0.612 and a relative viability (NCI-H661; first compound 0.8 µM) of 0.97. The relative viability (NCI-H661; first compound 2.53 µM) was 0.92, the relative viability (NCI-H661; first compound 8 µM) was 0.756 and the relative viability (NCI-H1395; first compound 0.08 µM) was 1.06. It also gave a relative viability (NCI-H1395; first compound 0.8 µM) of 1.24, a relative viability (NCI-H1395; first compound 2.53 µM) of 0.982 and a relative viability (NCI-H1395; first compound 8 µM) of 1.1. It also gave a relative viability (CAL-12T; first compound 0.08 µM) of 1.24, a relative viability (CAL-12T; first compound 0.8 µM) of 1.49 and a relative viability (CAL-12T; first compound 2.53 µM) of 1.31. For the same compound, the relative viability (CAL-12T; first compound 8 µM) was 1.33, the relative viability (201T; first compound 0.08 µM) was 0.979 and the relative viability (201T; first compound 0.8 µM) was 1.03. For the same compound, the relative viability (201T; first compound 2.53 µM) was 0.981, the relative viability (201T; first compound 8 µM) was 0.971 and the relative viability (NCI-H1666; first compound 0.08 µM) was 1.01. For the same compound, the relative viability (NCI-H1666; first compound 0.8 µM) was 1.09, the relative viability (NCI-H1666; first compound 2.53 µM) was 1.05 and the relative viability (NCI-H1666; first compound 8 µM) was 0.955. It also gave a relative viability (NCI-H322M; first compound 0.08 µM) of 0.833, a relative viability (NCI-H322M; first compound 0.8 µM) of 0.801 and a relative viability (NCI-H322M; first compound 2.53 µM) of 0.856. It also gave a relative viability (NCI-H322M; first compound 8 µM) of 0.648, a relative viability (NCI-H2170; first compound 0.08 µM) of 0.856 and a relative viability (NCI-H2170; first compound 0.8 µM) of 0.853. The relative viability (NCI-H2170; first compound 2.53 µM) was 0.92, the relative viability (NCI-H2170; first compound 8 µM) was 0.777 and the relative viability (NCI-H2228; first compound 0.08 µM) was 0.705. The relative viability (NCI-H2228; first compound 0.8 µM) was 0.781, the relative viability (NCI-H2228; first compound 2.53 µM) was 0.793 and the relative viability (NCI-H2228; first compound 8 µM) was 0.729. For the same compound, the relative viability (LCLC-103H; first compound 0.08 µM) was 1.07, the relative viability (LCLC-103H; first compound 0.8 µM) was 1.02 and the relative viability (LCLC-103H; first compound 2.53 µM) was 1.02. For the same compound, the relative viability (LCLC-103H; first compound 8 µM) was 0.866, the relative viability (NCI-H1651; first compound 0.08 µM) was 0.939 and the relative viability (NCI-H1651; first compound 0.8 µM) was 0.971. It also gave a relative viability (NCI-H1651; first compound 2.53 µM) of 0.945 and a relative viability (NCI-H1651; first compound 8 µM) of 0.873.
